According to ChEMBL document CHEMBL4295262, “Evaluation of the utility of stem-cell derived cardiomyocytes for drug proarrhythmic potential” (2019):

How the values were obtained:
[1] = (§1) Electrical activity assay on cell lines treated with a given drug. DMSO was used as a vehicle and a control, unblinded dofetilide was used as a control.; conditions: human, ipsc-cm
[2] = as §1; type: cell-based; set-up: APDc: unit not given here; conditions: human, ipsc-cm
[3] = as §1; conditions: human, ipsc-cm; remark: listed apart in the source
[4] = as §1; type: ADME, cell-based; set-up: FPDc: unit not given here; conditions: human, ipsc-cm
[5] = as §1; conditions: human, ipsc-cm; remark: listed apart in the source
[6] = as §1; type: ADME, cell-based; conditions: human, ipsc-cm, 0.001 µM; concentration (um) 0.001 uM
[7] = as §1; type: ADME, cell-based; set-up: FPDc: unit not given here; conditions: human, ipsc-cm, 0.01 µM; concentration (um) 0.01 uM
[8] = as §1; type: ADME, cell-based; conditions: human, ipsc-cm, 0.01 µM; concentration (um) 0.01 uM
[9] = 0.01 µM, concentration (um) 0.01 uM
[10] = 0.1 µM, concentration (um) 0.1 uM
[11] = 10 µM, concentration (um) 10 uM
[12] = 0.09507 µM, concentration (um) 0.0950736 uM
[13] = 0.3004 µM, concentration (um) 0.300433 uM
[14] = 0.9494 µM, concentration (um) 0.949367 uM
[15] = 0.003169 µM, concentration (um) 0.00316912 uM
[16] = 0.01001 µM, concentration (um) 0.0100144 uM
[17] = 0.03165 µM, concentration (um) 0.0316456 uM
[18] = 0.001 µM, concentration (um) 0.001 uM
[19] = 0.0001 µM, concentration (um) 0.0001 uM

CN1CCN(CCCCN2C(=O)CN(/N=C/c3ccc(-c4ccc(Cl)cc4)o3)C2=O)CC1 [AZIMILIDE]
FPDc ([1]; 0.01 µM): 73.84 | FPDc ([1]; 0.1 µM): 69.12 | FPDc ([1]; 1 µM): More Than Half The Wells Had A Quiescence Event Or Fpdc Readings Of 0 | FPDc ([1]; 10 µM): More Than Half The Wells Had A Quiescence Event Or Fpdc Readings Of 0 | APDc [2, 9]: 52.41 | FPD measurement [2, 9]: 52.41 FPDc | APDc [2, 10]: 47.87 | FPD measurement [2, 10]: 47.87 FPDc | APDc ([2]; 1 µM, concentration (um) 1 uM): 63.58 | FPD measurement ([2]; 1 µM, concentration (um) 1 uM): 63.58 FPDc | APDc [2, 11]: 121.3 | FPD measurement [2, 11]: 121.3 FPDc | FPD measurement ([3]; 0.01 µM): 55.32 FPDc | FPDc ([3]; 0.01 µM): 55.32 | FPD measurement ([3]; 0.1 µM): 56.52 FPDc | FPDc ([3]; 0.1 µM): 56.52 | FPD measurement ([3]; 1 µM): 77.06 FPDc | FPDc ([3]; 1 µM): 77.06 | FPD measurement ([3]; 10 µM): 5 Values Out Of 5 Were Excluded Due To Quiescence Or 0 Fpdc | FPDc ([3]; 10 µM): 5 Values Out Of 5 Were Excluded Due To Quiescence Or 0 Fpdc | FPDc [4, 9]: 0.03892 | FPDc [4, 10]: 0.04044 | FPDc ([4]; 1 µM, concentration (um) 1 uM): 0.04651 | FPDc [4, 11]: 0.06031

CC(C)COCC(CN(Cc1ccccc1)c1ccccc1)N1CCCC1 (centres undefined) [BEPRIDIL]
FPDc ([1]; 0.01 µM): 70.33 | FPDc ([1]; 0.1 µM): 77.75 | FPD measurement ([1]; 1 µM): 5 Values Out Of 5 Were Excluded Due To Quiescence Or 0 Apdc | FPDc ([1]; 1 µM): 78.3 | FPD measurement ([1]; 10 µM): More Than Half The Wells Had A Quiescence Event Or Apdc Readings Of 0 | FPDc ([1]; 10 µM): More Than Half The Wells Had A Quiescence Event Or Fpdc Readings Of 0 | APDc [2, 9]: 52.45 | FPD measurement [2, 9]: 52.45 FPDc | APDc [2, 10]: 43.71 | FPD measurement [2, 10]: 43.71 FPDc | APDc ([2]; 1 µM, concentration (um) 1 uM): 57.33 | FPD measurement ([2]; 1 µM, concentration (um) 1 uM): 57.33 FPDc | FPDc [4, 9]: 0.04073 | FPDc [4, 10]: 0.0376 | FPDc ([4]; 1 µM, concentration (um) 1 uM): 0.04541 | FPD measurement [4, 11]: More Than Half The Wells Had A Quiescence Event Or Fpdc Readings Of 0 | FPDc [4, 11]: More Than Half The Wells Had A Quiescence Event Or Fpdc Readings Of 0

CN(C)CCCN1c2ccccc2Sc2ccc(Cl)cc21 [CHLORPROMAZINE]
APDc [2, 12]: 69.32 | FPD measurement [2, 12]: 69.32 FPDc | APDc [2, 13]: 63.65 | FPD measurement [2, 13]: 63.65 FPDc | APDc [2, 14]: 55.94 | FPD measurement [2, 14]: 55.94 FPDc | APDc ([2]; 3 µM, concentration (um) 3 uM): 58.51 | FPD measurement ([2]; 3 µM, concentration (um) 3 uM): 58.51 FPDc | FPD measurement ([3]; 0.09507 µM): 53.9 FPDc | FPDc ([3]; 0.09507 µM): 53.9 | FPD measurement ([3]; 0.3004 µM): 52.05 FPDc | FPDc ([3]; 0.3004 µM): 52.05 | FPD measurement ([3]; 0.9494 µM): 50.49 FPDc | FPDc ([3]; 0.9494 µM): 50.49 | FPD measurement ([3]; 3 µM): 44.91 FPDc | FPDc ([3]; 3 µM): 44.91 | FPDc [4, 12]: 0.04224 | FPDc [4, 13]: 0.04702 | FPDc [4, 14]: 0.04411 | FPD measurement ([4]; 3 µM, concentration (um) 3 uM): More Than Half The Wells Had A Quiescence Event Or Fpdc Readings Of 0 | FPDc ([4]; 3 µM, concentration (um) 3 uM): More Than Half The Wells Had A Quiescence Event Or Fpdc Readings Of 0

COc1cc(N)c(Cl)cc1C(=O)NC1CCN(CCCOc2ccc(F)cc2)CC1OC (centres undefined) [CISAPRIDE]
APDc [2, 15]: 60.87 | FPD measurement [2, 15]: 60.87 FPDc | APDc [2, 16]: 62.7 | FPD measurement [2, 16]: 62.7 FPDc | APDc [2, 17]: 58.7 | FPD measurement [2, 17]: 58.7 FPDc | APDc [2, 10]: 92.05 | FPD measurement [2, 10]: 92.05 FPDc | FPD measurement ([5]; 0.003169 µM): 1 Values Out Of 1 Were Excluded Due To Quiescence Or 0 Fpdc | FPDc ([5]; 0.003169 µM): 1 Values Out Of 1 Were Excluded Due To Quiescence Or 0 Fpdc | FPD measurement ([5]; 0.01001 µM): 1 Values Out Of 1 Were Excluded Due To Quiescence Or 0 Fpdc | FPDc ([5]; 0.01001 µM): 1 Values Out Of 1 Were Excluded Due To Quiescence Or 0 Fpdc | FPD measurement ([5]; 0.03165 µM): 1 Values Out Of 1 Were Excluded Due To Quiescence Or 0 Fpdc | FPDc ([5]; 0.03165 µM): 1 Values Out Of 1 Were Excluded Due To Quiescence Or 0 Fpdc | FPD measurement ([5]; 0.1 µM): 1 Values Out Of 1 Were Excluded Due To Quiescence Or 0 Fpdc | FPDc ([5]; 0.1 µM): 1 Values Out Of 1 Were Excluded Due To Quiescence Or 0 Fpdc | FPDc [4, 15]: 0.04125 | FPDc [4, 16]: 0.03941 | FPDc [4, 17]: 0.04671 | FPDc [4, 10]: 0.04762

COc1ccc([C@@H]2Sc3ccccc3N(CCN(C)C)C(=O)[C@@H]2OC(C)=O)cc1 [DILTIAZEM]
APDc [2, 9]: 56.41 | FPD measurement [2, 9]: 56.41 FPDc | APDc [2, 10]: 49.22 | FPD measurement [2, 10]: 49.22 FPDc | APDc ([2]; 1 µM, concentration (um) 1 uM): 40.25 | FPD measurement ([2]; 1 µM, concentration (um) 1 uM): 40.25 FPDc | APDc [2, 11]: 32.58 | FPD measurement [2, 11]: 32.58 FPDc | FPD measurement ([3]; 0.01 µM): 53.63 FPDc | FPDc ([3]; 0.01 µM): 53.63 | FPD measurement ([3]; 0.1 µM): 45.42 FPDc | FPDc ([3]; 0.1 µM): 45.42 | FPD measurement ([3]; 1 µM): 28.2 FPDc | FPDc ([3]; 1 µM): 28.2 | FPD measurement ([3]; 10 µM): 13.87 FPDc | FPDc ([3]; 10 µM): 13.87 | FPDc [4, 9]: 0.0252 | FPD measurement [4, 10]: More Than Half The Wells Had A Quiescence Event Or Fpdc Readings Of 0 | FPDc [4, 10]: More Than Half The Wells Had A Quiescence Event Or Fpdc Readings Of 0 | FPD measurement ([4]; 1 µM, concentration (um) 1 uM): More Than Half The Wells Had A Quiescence Event Or Fpdc Readings Of 0 | FPDc ([4]; 1 µM, concentration (um) 1 uM): More Than Half The Wells Had A Quiescence Event Or Fpdc Readings Of 0 | FPD measurement [4, 11]: More Than Half The Wells Had A Quiescence Event Or Fpdc Readings Of 0 | FPDc [4, 11]: More Than Half The Wells Had A Quiescence Event Or Fpdc Readings Of 0

C[S+](C)[O-] [DIMETHYL SULFOXIDE]
FPDc ([1]; 1 µM): 70.37 | FPD measurement [6]: 49.93 FPDc | FPDc [6]: 72 Values Out Of 72 Were Excluded Due To Quiescence Or 0 Fpdc | FPDc [7]: 50.28 | FPD measurement [8]: 25 Values Out Of 25 Were Excluded Due To Quiescence Or 0 Apdc | FPDc [8]: 20.63 | FPD measurement ([3]; 0.001 µM): 55.35 FPDc | FPDc ([3]; 0.001 µM): 55.35 | FPDc [4, 18]: 0.03393

CCCCCCCN(CC)CCCC(O)c1ccc(NS(C)(=O)=O)cc1 (centres undefined) [IBUTILIDE]
FPD measurement ([1]; 0.0001 µM): 5 Values Out Of 5 Were Excluded Due To Quiescence Or 0 Apdc | FPDc ([1]; 0.0001 µM): 68.56 | FPD measurement ([1]; 0.001 µM): 5 Values Out Of 5 Were Excluded Due To Quiescence Or 0 Apdc | FPDc ([1]; 0.001 µM): 62.64 | FPD measurement ([1]; 0.01 µM): 5 Values Out Of 5 Were Excluded Due To Quiescence Or 0 Apdc | FPDc ([1]; 0.01 µM): 5 Values Out Of 5 Were Excluded Due To Quiescence Or 0 Fpdc | FPD measurement ([1]; 0.1 µM): More Than Half The Wells Had A Quiescence Event Or Apdc Readings Of 0 | FPDc ([1]; 0.1 µM): More Than Half The Wells Had A Quiescence Event Or Fpdc Readings Of 0 | APDc [2, 19]: 43.63 | FPD measurement [2, 19]: 43.63 FPDc | APDc [2, 18]: 43.37 | FPD measurement [2, 18]: 43.37 FPDc | APDc [2, 9]: 124.5 | FPD measurement [2, 9]: 124.5 FPDc | FPD measurement ([5]; 0.0001 µM): 1 Values Out Of 1 Were Excluded Due To Quiescence Or 0 Fpdc | FPDc ([5]; 0.0001 µM): 1 Values Out Of 1 Were Excluded Due To Quiescence Or 0 Fpdc | FPD measurement ([5]; 0.001 µM): 1 Values Out Of 1 Were Excluded Due To Quiescence Or 0 Fpdc | FPDc ([5]; 0.001 µM): 1 Values Out Of 1 Were Excluded Due To Quiescence Or 0 Fpdc | FPD measurement ([5]; 0.01 µM): 1 Values Out Of 1 Were Excluded Due To Quiescence Or 0 Fpdc | FPDc ([5]; 0.01 µM): 1 Values Out Of 1 Were Excluded Due To Quiescence Or 0 Fpdc | FPD measurement ([5]; 0.1 µM): 1 Values Out Of 1 Were Excluded Due To Quiescence Or 0 Fpdc | FPDc ([5]; 0.1 µM): 1 Values Out Of 1 Were Excluded Due To Quiescence Or 0 Fpdc | FPD measurement ([3]; 0.0001 µM): 56.72 FPDc | FPDc ([3]; 0.0001 µM): 56.72 | FPD measurement ([3]; 0.001 µM): 63.97 FPDc | FPDc ([3]; 0.001 µM): 63.97 | FPD measurement ([3]; 0.01 µM): More Than Half The Wells Had A Quiescence Event Or Fpdc Readings Of 0 | FPDc ([3]; 0.01 µM): More Than Half The Wells Had A Quiescence Event Or Fpdc Readings Of 0 | FPD measurement ([3]; 0.1 µM): More Than Half The Wells Had A Quiescence Event Or Fpdc Readings Of 0 | FPDc ([3]; 0.1 µM): More Than Half The Wells Had A Quiescence Event Or Fpdc Readings Of 0 | FPDc [4, 19]: 0.0175 | FPDc [4, 18]: 0.01997 | FPDc [4, 9]: 0.0289 | FPD measurement [4, 10]: More Than Half The Wells Had A Quiescence Event Or Fpdc Readings Of 0 | FPDc [4, 10]: More Than Half The Wells Had A Quiescence Event Or Fpdc Readings Of 0
